# From US6004938A, “Inositolglycans having insulin-like action” (Hoescht Aktiengesellschaft, priority 1996, dated 1999)
# What was measured:
# rat fat cells [1] = assay: Glucose transport in isolated rat fat cells (insulin-like activity); assay type: cell-based, rat (Wistar); conditions: rat fat cells, 2-[3H]-deoxyglucose; for Emax: 0.25 h, read-out: Glucose transport % Insmax; for Emax / Glucose transport % Insmax: part of maximum stimulation factor of insulin (set at 100%), 15 min, 37° C.; for EC50: concentration at 50% of the maximum stimulation achieved by the respective compound, read-out: Glucose transport EC50
# Procedure: (§1) This example provides exemplary methods for determining insulin-like activity. The biological activity of the compounds of the formula I according to the invention is determined with the aid of isolated fat cells from the rat.
# (§2) The preparation of fat cells from the rat was carried out as follows: White fatty tissue of the epididymis (Wistar rat, 160-180 g, no food restriction) is digested with collagenase and the resulting isolated fat cells are separated off by means of filtration of undigested tissue and washed by flotation several times using Krebs-Ringer-Henseleit buffer (KRH buffer).
# […] After addition of 15 μl of 2-[^3 H]-deoxyglucose (0.3 mM, 0.2 μCi), the incubation is continued at room temperature. After specified times (0-20 min), 100 μl of the test batch are removed and transferred to a reaction vessel (contents 400 μl), in which 250 μl of dinonyl phthalate have been initially introduced. After centrifugation (15,000×g, 1 min), the cells are separated off from the oily layer of the incubation medium underneath the oily layer by cutting the tube at the level of the oily layer and transferring to a scintillation vessel. After addition of 5 ml of water-soluble scintillation fluid, the radioactivity is determined. This total cell-associated radioactivity is corrected for [^3 H]-deoxyglucose which has passively diffused into the cells and is included in the cell interstices by subtraction of a control value (incubation in the presence of the glucose transport inhibitor cytochalasin B). The initial (stimulated) glucose transport rate is linear up to 15 min. The maximum stimulation factor--this is the ratio of the incubation result with insulin to the incubation result without insulin--is set at 100%.
# The terms "%Insmax " and "EC50 " are as defined under A) lipogenesis.
# rat fat cells [2] = assay: Lipogenesis in isolated rat fat cells (insulin-like activity); assay type: cell-based, rat (Wistar); conditions: rat fat cells, 90 min, 37° C.; for EC50: concentration at 50% of the maximum stimulation achieved by the respective compound, read-out: Lipogenesis EC50; for Emax / Lipogenesis % Insmax: part of maximum stimulation factor of insulin (set at 100%), D-[3-3H]glucose; for Emax: read-out: Lipogenesis % Insmax
# Procedure: as §1, §2
# This test determines the insulin-stimulable conversion of glucose into toluene-soluble products (triglycerides, phospholipids, fatty acids), which promotes glucose transport and triglyceride (glycerol-3-P synthesis, esterification)/phospholipid/fatty acid synthesis including the insulin signal transmission cascade. At a glucose concentration of 2.5 mM in the test, the esterification (and not the glycerol-3-P synthesis including glucose transport) is rate-determining for the stimulation of lipogenesis.
# 200 μl (3×10^5 cells/ml) of rat fat cells in KRH buffer are incubated at 37° C. for 90 min with 100 μl of D-[3-^3 H] glucose (25 mM, 0.4 μCi) in the presence or absence of insulin (10 ng/ml) or compound of the formula I according to the invention (final volume 1 ml). By addition of a toluene-soluble scintillation cocktail (10 ml), the cells are disrupted and the lipids are separated off from water-soluble products and the incubation medium. After phase separation, the radioactivity incorporated in lipid products is determined directly without removal of the aqueous phase by scintillation measurement ([^3 H]lipid [dpm×10^-3 ]). A control value (incubation under identical conditions but without cells) is subtracted from this radioactivity. The lipogenesis rate is linear up to 120 min. The maximum stimulation factor--this is the ratio of the incubation result with insulin to the incubation results without insulin--is set at 100%. The percentage data under "%Insmax " are parts of the maximum stimulation factor defined in this way. The term EC50 indicates the concentration of the compound of the formula I at which 50% of the maximum stimulation to be achieved by the respective compound of the formula I is to be observed.
Compound,EC50 (rat fat cells [1]),EC50 (rat fat cells [2]; 1.5 h),EC50 (rat fat cells [2]),Emax (rat fat cells [1]),Emax (rat fat cells [2]; 1.5 h),Glucose transport % Insmax (rat fat cells [1]),Lipogenesis % Insmax (rat fat cells [2])
"N[C@H]1[C@H](O[C@H]2[C@H](O)[C@@H](O)[C@H](OP(=O)(O)O)[C@H](O)[C@@H]2O)O[C@H](CO)[C@@H](O)[C@@H]1O[C@H]1O[C@H](CO[C@H]2O[C@H](COS(=O)(=O)O)[C@@H](O)[C@H](O)[C@@H]2O[C@H]2O[C@H](CO)[C@@H](O)[C@H](O)[C@@H]2O[C@H]2O[C@H](CO)[C@@H](O)[C@H](O)[C@@H]2O)[C@@H](O)[C@H](O)[C@@H]1O [V, Manα1(Manα1-2)-2Manα1(6-HSO3)-6Manα1-3GluNβ1-6(L)inositol-3-phosphate]",15 µM,15 µM,–,48%,83%,–,–
"H2 N-CO-6Manα1(Manα1-2)-2Manα1-6Manα1-4GluNβ1-6(D)-inositol-1,2-(cyclic)-phosphate [K]",15 µM,–,8 µM,–,–,23%,72%
HO-PO(H)O-6-Manα1(Manα1-2)-2-Manα1-6Manα-3GluNβ1-6(L)-inositol-3-phosphate,20 µM,–,20 µM,–,–,18%,32%
HO-PO(H)O-6Manα1(Manα1-2)-2Manα1-6Manα1-4GluNα1-6(L)inositol-2-phosphate [F],25 µM,–,15 µM,–,–,26%,53%
HO-PO(H)O-6Manα1-6-Manα1-6Manα1-6Manα1-3GluNβ1-6(L)inositol-3-phosphate,50 µM,–,20 µM,–,–,14%,18%

# Second part, led by results:
EC50 (rat fat cells [1]),EC50 (rat fat cells [2]; 1.5 h),EC50 (rat fat cells [2]),Compound,Emax (rat fat cells [1]),Emax (rat fat cells [2]; 1.5 h),Glucose transport % Insmax (rat fat cells [1]),Lipogenesis % Insmax (rat fat cells [2])
10 µM,12 µM,–,"N[C@H]1[C@H](O[C@H]2[C@H](O)[C@@H](O)[C@H](OP(=O)(O)O)[C@H](O)[C@@H]2O)O[C@H](CO)[C@@H](O)[C@@H]1O[C@H]1O[C@H](CO[C@H]2O[C@H](CO[PH](=O)O)[C@@H](O)[C@H](O)[C@@H]2O[C@H]2O[C@H](CO[PH](=O)O)[C@@H](O)[C@H](O)[C@@H]2O[C@H]2O[C@H](CO)[C@@H](O)[C@H](O)[C@@H]2O)[C@@H](O)[C@H](O)[C@@H]1O [T, HO-PO(H)O-6Manα1(Manα1-2)-2Manα1(6-PO(H)OH)-6Manα1-3GluNβ1-6(L)inositol-3-phosphate]",30%,72%,–,–
15 µM,15 µM,–,"N[C@H]1[C@H](O[C@H]2[C@H](O)[C@@H](O)[C@H](OP(=O)(O)O)[C@H](O)[C@@H]2O)O[C@H](CO)[C@@H](O)[C@@H]1O[C@H]1O[C@H](CO[C@H]2O[C@H](CO[PH](=O)O)[C@@H](O)[C@H](O)[C@@H]2O[C@H]2O[C@H](CO)[C@@H](O)[C@H](O)[C@@H]2O[C@H]2O[C@H](CO)[C@@H](O)[C@H](O)[C@@H]2O)[C@@H](O)[C@H](O)[C@@H]1O [U, Manα1-2Manα1-2Manα1(6-PO(H)OH)-6Manα1-3GluNβ1-6(L)inositol-3-phosphate]",34%,80%,–,–
10 µM,10 µM,–,"N[C@H]1[C@H](O[C@H]2[C@H](O)[C@@H](O)[C@H](OP(=O)(O)O)[C@H](O)[C@@H]2O)O[C@H](CO)[C@@H](O)[C@@H]1O[C@H]1O[C@H](CO[C@H]2O[C@H](COS(=O)(=O)O)[C@@H](O)[C@H](O)[C@@H]2O[C@H]2O[C@H](COS(=O)(=O)O)[C@@H](O)[C@H](O)[C@@H]2O[C@H]2O[C@H](CO)[C@@H](O)[C@H](O)[C@@H]2O)[C@@H](O)[C@H](O)[C@@H]1O [W, HO-SO2 -O-6Manα1(Manα1-2)-2-Manα1(6-HSO3)-6Manα1-3GluNβ1-6(L)inositol-3-phosphate]",42%,86%,–,–
3 µM,–,8 µM,"HO-PO(H)O-6Manα1(Manα1-2)-2-Manα1-6-Manα1-4GluN(HSO3)β-1-6(L)-inositol-1,2-(cyclic)-phosphate [J]",–,–,21%,63%
8 µM,–,7 µM,"HO-SO2 -6Manα1(Manα1-2)-2Manα1-6Manα1-4GluNβ1-6(D)-inositol-1,2-(cyclic)-phosphate",–,–,36%,84%
